Test results from patent publication US10766903B2 (ALMAC DISCOVERY LIMITED, priority 2016, dated 2020).
Structures can show the parent of a compound that is named as a salt. Where two headings read alike, the source gives them in different places.

Target: USP7 (Homo sapiens (Human), UniProt Q93009)
Experiment: USP7 fluorescence polarisation (FP) biochemical assay, ubiquitin-Lys-TAMRA substrate
Method: Measurement of USP7 Inhibitory Activity
USP7 activity was monitored in a fluorescence polarisation (FP) homogeneous assay using the isopeptide ubiquitin-Lys-TAMRA substrate (U-558, Boston Biochem). Full-length USP7 was purchased from Boston Biochem (His6-USP7FL, E-519). Unless otherwise stated, all other reagents were purchased from Sigma-Aldrich. Enzymatic reactions were conducted in black flat-bottom polystyrene 384-well plates (Nunc) and 15 μL total volume. USP7 (2.5 nM, 5 μL) was incubated in assay buffer (50 mM HEPES (pH 7.2), 150 mM NaCl, 0.5 mM EDTA, 5 mM DTT, 0.05% BSA (w/v), 0.05% CHAPS) in the presence or absence of inhibitor (5 μl). Inhibitors were stored as 10 mM DMSO stocks in an inert environment (low humidity, dark, low oxygen, room temperature) using a Storage Pod System and serial dilutions were prepared in buffer just prior to the assay (from 200 to 0.1 μM, 8 dp curve). […] FP was measured every 15 min over a period of 1.5 h (within the linear range of the assay) using a Synergy 4 plate reader (BioTek) exciting at 530 nm and measuring the amount of parallel and perpendicular light at 575 nm. The FP signal was subsequently normalised to the control without compound present.

[1] = USP7 IC50, Table 4, biochemical assay, average of at least duplicate experiments
[2] = Table 4, biochemical assay, average of at least duplicate experiments, read-out: USP7 IC50

Sequence of USP7 (Q93009 whole entry): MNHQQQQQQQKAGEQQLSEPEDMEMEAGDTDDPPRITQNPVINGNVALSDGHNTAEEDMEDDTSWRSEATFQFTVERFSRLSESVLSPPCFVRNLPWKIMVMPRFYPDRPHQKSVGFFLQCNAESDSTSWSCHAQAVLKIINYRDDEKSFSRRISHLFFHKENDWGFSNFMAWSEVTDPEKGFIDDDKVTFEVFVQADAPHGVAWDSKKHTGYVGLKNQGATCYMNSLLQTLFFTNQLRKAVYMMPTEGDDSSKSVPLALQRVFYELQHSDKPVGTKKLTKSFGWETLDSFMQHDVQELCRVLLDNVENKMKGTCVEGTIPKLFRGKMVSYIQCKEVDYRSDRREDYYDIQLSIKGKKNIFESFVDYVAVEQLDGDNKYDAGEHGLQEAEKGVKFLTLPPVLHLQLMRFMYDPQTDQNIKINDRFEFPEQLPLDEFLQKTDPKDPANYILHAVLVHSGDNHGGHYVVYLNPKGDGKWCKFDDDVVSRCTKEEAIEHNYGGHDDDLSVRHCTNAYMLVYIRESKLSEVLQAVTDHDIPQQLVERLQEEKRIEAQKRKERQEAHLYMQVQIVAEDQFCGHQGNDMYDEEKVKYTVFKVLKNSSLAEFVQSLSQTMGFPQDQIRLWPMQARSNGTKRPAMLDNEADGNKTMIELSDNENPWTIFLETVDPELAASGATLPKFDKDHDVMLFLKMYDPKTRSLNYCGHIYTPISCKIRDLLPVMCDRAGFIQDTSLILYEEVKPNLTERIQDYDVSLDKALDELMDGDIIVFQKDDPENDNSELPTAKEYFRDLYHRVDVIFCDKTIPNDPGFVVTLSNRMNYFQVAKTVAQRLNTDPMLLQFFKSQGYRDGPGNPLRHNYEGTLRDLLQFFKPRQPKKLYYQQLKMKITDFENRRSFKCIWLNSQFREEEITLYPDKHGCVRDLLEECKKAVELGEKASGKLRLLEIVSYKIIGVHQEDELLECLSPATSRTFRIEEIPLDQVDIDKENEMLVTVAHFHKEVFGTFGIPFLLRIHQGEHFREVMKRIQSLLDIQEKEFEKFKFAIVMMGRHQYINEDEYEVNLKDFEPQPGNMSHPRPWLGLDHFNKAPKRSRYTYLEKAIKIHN

Row | Structure (SMILES) | IC50 [2] [nM] | further results
1 | CC(C)Cn1cc(-c2cc(=O)n(CC3(O)CCN(C(=O)C[C@@H](C)c4ccccc4)CC3)cn2)cn1 [Example 41, (R)-3-((4-Hydroxy-1-(3-phenylbutanoyl)piperidin-4-yl)methyl)-6-(1-isobutyl-1H-pyrazol-4-yl)pyrimidin-4(3H)-one] | – | IC50 [1]: 250 to 999 nM
2 | C[C@H](CC(=O)N1CCC(O)(Cn2cnc(Nc3ccc4c(c3)C3CCC4N3)cc2=O)CC1)c1ccccc1 (stereo partly drawn) [Example 42, 3-((4-Hydroxy-1-((R)-3-phenylbutanoyl)piperidin-4-yl)methyl)-6-((1,2,3,4-tetrahydro-1,4-epiminonaphthalen-6-yl)amino)pyrimidin-4(3H)-one hydrochloride] | – | IC50: 250 to 999 nM
3 | C[C@H](CC(=O)N1CCC(O)(Cn2cnc3c(Nc4ccccc4)n(C)nc3c2=O)CC1)c1ccccc1 [Example 43, (R)-6-((4-Hydroxy-1-(3-phenylbutanoyl)piperidin-4-yl)methyl)-2-methyl-3-(phenylamino)-2H-pyrazolo[4,3-d]pyrimidin-7(6H)-one] | 1000 to 200000 | –
4 | Cc1c(Cl)ncn(CC2(O)CCN(C(=O)C[C@@H](C)c3ccccc3)CC2)c1=O [Example 44, (R)-6-Chloro-3-((4-hydroxy-1-(3-phenylbutanoyl)piperidin-4-yl)methyl)-5-methylpyrimidin-4(3H)-one] | 1000 to 200000 | –
5 | C[C@H](CC(=O)N1CCC(O)(Cn2cnc(NCCN3CCCC3)c(Br)c2=O)CC1)c1ccccc1 [Example 45, (R)-5-Bromo-3-((4-hydroxy-1-(3-phenylbutanoyl)piperidin-4-yl)methyl)-6-((2-(pyrrolidin-1-yl)ethyl)amino)pyrimidin-4(3H)-one] | 1000 to 200000 | –
6 | C[C@H](CC(=O)N1CCC(O)(Cn2cnc(N3CCC[C@H](N)C3)cc2=O)CC1)c1ccccc1 [Example 47, 6-((S)-3-Aminopiperidin-1-yl)-3-((4-hydroxy-1-((R)-3-phenylbutanoyl)piperidin-4-yl)methyl)pyrimidin-4(3H)-one hydrochloride] | – | IC50 [1]: 250 to 999 nM
7 | C[C@H](CC(=O)N1CCC(O)(Cn2cnc(N3CCC(N)CC3)cc2=O)CC1)c1ccccc1 [Example 48, (R)-6-(4-Aminopiperidin-1-yl)-3-((4-hydroxy-1-(3-phenylbutanoyl)piperidin-4-yl)methyl)pyrimidin-4(3H)-one hydrochloride] | – | IC50 [1]: 250 to 999 nM
8 | C[C@H](CC(=O)N1CCC(O)(Cn2cnc(N3CCC4(CCNC4)CC3)cc2=O)CC1)c1ccccc1 [Example 49, (R)-3-((4-Hydroxy-1-(3-phenylbutanoyl)piperidin-4-yl)methyl)-6-(2,8-diazaspiro[4.5]decan-8-yl)pyrimidin-4(3H)-one hydrochloride] | – | IC50 [1]: 250 to 999 nM
9 | C[C@H](CC(=O)N1CCC(O)(Cn2cnc(N3CCC[C@H](N(C)C)C3)cc2=O)CC1)c1ccccc1 [Example 50, 6-((S)-3-(Dimethylamino)piperidin-1-yl)-3-((4-hydroxy-1-((R)-3-phenylbutanoyl)piperidin-4-yl)methyl)pyrimidin-4(3H)-one] | < 250 | –
10 | C[C@H](CC(=O)N1CCC(O)(Cn2cnc(/C=C/CN3CCCC3)cc2=O)CC1)c1ccccc1 [Example 51, (R,E)-3-((4-Hydroxy-1-(3-phenylbutanoyl)piperidin-4-yl)methyl)-6-(3-(pyrrolidin-1-yl)prop-1-en-1-yl)pyrimidin-4(3H)-one] | 1000 to 200000 | –
11 | C[C@H](CC(=O)N1CCC(O)(Cn2cnc(NCCN3CCCCC3)cc2=O)CC1)c1ccccc1 [Example 52, (R)-3-((4-Hydroxy-1-(3-phenylbutanoyl)piperidin-4-yl)methyl)-6-((2-(piperidin-1-yl)ethyl)amino)pyrimidin-4(3H)-one] | < 250 | –
12 | C[C@H](CC(=O)N1CCC(O)(Cn2cnc(-c3cnn(CCN(C)C)c3)cc2=O)CC1)c1ccccc1 [Example 54, (R)-6-(1-(2-(Dimethylamino)ethyl)-1H-pyrazol-4-yl)-3-((4-hydroxy-1-(3-phenylbutanoyl)piperidin-4-yl)methyl)pyrimidin-4(3H)-one, Formic Acid] | – | IC50 [1]: 250 to 999 nM
13 | C[C@H](CC(=O)N1CCC(O)(Cn2cnc(/C=C/CN3CC[C@@H](N)C3)cc2=O)CC1)c1ccccc1 [Example 55, 6-((E)-3-((R)-3-Aminopyrrolidin-1-yl)prop-1-en-1-yl)-3-((4-hydroxy-1-((R)-3-phenylbutanoyl)piperidin-4-yl)methyl)pyrimidin-4(3H)-one, Formic Acid] | 1000 to 200000 | –
14 | C[C@H](CC(=O)N1CCC(O)(Cn2cnc(/C=C/CN3CC[C@H](N)C3)cc2=O)CC1)c1ccccc1 [Example 56, 6-((E)-3-((S)-3-Aminopyrrolidin-1-yl)prop-1-en-1-yl)-3-((4-hydroxy-1-((R)-3-phenylbutanoyl)piperidin-4-yl)methyl)pyrimidin-4(3H)-one, Formic Acid] | 1000 to 200000 | –
15 | C[C@H](CC(=O)N1CCC(O)(Cn2cnc(N[C@@H](Cc3ccccc3)CN3CCCC3)cc2=O)CC1)c1ccccc1 [Example 57, 3-((4-Hydroxy-1-((R)-3-phenylbutanoyl)piperidin-4-yl)methyl)-6-(((S)-1-phenyl-3-(pyrrolidin-1-yl)propan-2-yl)amino)pyrimidin-4(3H)-one, Formic Acid] | 1000 to 200000 | –
16 | C[C@H](CC(=O)N1CCC(O)(Cn2cnc(NC[C@@H](C)N3CCCC3)cc2=O)CC1)c1ccccc1 [Example 58, 3-((4-Hydroxy-1-((R)-3-phenylbutanoyl)piperidin-4-yl)methyl)-6-(((R)-2-(pyrrolidin-1-yl)propyl)amino)pyrimidin-4(3H)-one] | < 250 | –
17 | C[C@H](CC(=O)N1CCC(O)(Cn2cnc(NC[C@H](C)N3CCCC3)cc2=O)CC1)c1ccccc1 [Example 59, 3-((4-Hydroxy-1-((R)-3-phenylbutanoyl)piperidin-4-yl)methyl)-6-(((S)-2-(pyrrolidin-1-yl)propyl)amino)pyrimidin-4(3H)-one, Formic Acid] | < 250 | –
18 | C[C@H](CN1CCCC1)Nc1cc(=O)n(CC2(O)CCN(C(=O)C[C@@H](C)c3ccccc3)CC2)cn1 [Example 60, 3-((4-Hydroxy-1-((R)-3-phenylbutanoyl)piperidin-4-yl)methyl)-6-(((R)-1-(pyrrolidin-1-yl)propan-2-yl)amino)pyrimidin-4(3H)-one, Formic Acid] | < 250 | –
19 | C[C@H](CC(=O)N1CCC(O)(Cn2cnc(N[C@@H](C)CN3CCCC3)cc2=O)CC1)c1ccccc1 [Example 61, 3-((4-Hydroxy-1-((R)-3-phenylbutanoyl)piperidin-4-yl)methyl)-6-(((S)-1-(pyrrolidin-1-yl)propan-2-yl)amino)pyrimidin-4(3H)-one, Formic Acid] | – | IC50 [1]: 250 to 999 nM
20 | C[C@H](CC(=O)N1CCC(O)(Cn2cnc(N3CC[C@H](N(C)C)C3)cc2=O)CC1)c1ccccc1 [Example 62, 6-((S)-3-(Dimethylamino)pyrrolidin-1-yl)-3-((4-hydroxy-1-((R)-3-phenylbutanoyl)piperidin-4-yl)methyl)pyrimidin-4(3H)-one] | – | IC50 [1]: 250 to 999 nM
21 | C[C@H](CC(=O)N1CCC(O)(Cn2cnc(NC[C@H]3CCCN3C)cc2=O)CC1)c1ccccc1 [Example 65, 3-((4-Hydroxy-1-((R)-3-phenylbutanoyl)piperidin-4-yl)methyl)-6-((((R)-1-methylpyrrolidin-2-yl)methyl)amino)pyrimidin-4(3H)-one, Formic Acid] | 250 to 999 | –
22 | C[C@H](CC(=O)N1CCC(O)(Cn2cnc(NC[C@@H]3CCCN3C)cc2=O)CC1)c1ccccc1 [Example 66, 3-((4-Hydroxy-1-((R)-3-phenylbutanoyl)piperidin-4-yl)methyl)-6-((((S)-1-methylpyrrolidin-2-yl)methyl)amino)pyrimidin-4(3H)-one, Formic Acid] | 1000 to 200000 | –
23 | C[C@H](CC(=O)N1CCC(O)(Cn2cnc3c(ncn3-c3ccc(CN)cc3)c2=O)CC1)c1ccccc1 [Example 68, (R)-9-(4-(Aminomethyl)phenyl)-1-((4-hydroxy-1-(3-phenylbutanoyl)piperidin-4-yl)methyl)-1H-purin-6(9H)-one] | < 250 | –
24 | C[C@H](CC(=O)N1CCC(O)(Cn2cnc(NCCN3CCC[C@@H]3C)cc2=O)CC1)c1ccccc1 [Example 69, 3-((4-Hydroxy-1-((R)-3-phenylbutanoyl)piperidin-4-yl)methyl)-6-((2-((S)-2-methylpyrrolidin-1-yl)ethyl)amino)pyrimidin-4(3H)-one, Formic Acid] | < 250 | –
25 | COC[C@H]1CCCN1CCNc1cc(=O)n(CC2(O)CCN(C(=O)C[C@@H](C)c3ccccc3)CC2)cn1 [Example 70, 3-((4-Hydroxy-1-((R)-3-phenylbutanoyl)piperidin-4-yl)methyl)-6-((2-((R)-2-(methoxymethyl)pyrrolidin-1-yl)ethyl)amino)pyrimidin-4(3H)-one] | 1000 to 200000 | –
26 | C[C@H]1CCN(CCNc2cc(=O)n(CC3(O)CCN(C(=O)C[C@@H](C)c4ccccc4)CC3)cn2)C1 [Example 71, 3-((4-Hydroxy-1-((R)-3-phenylbutanoyl)piperidin-4-yl)methyl)-6-((2-((S)-3-methylpyrrolidin-1-yl)ethyl)amino)pyrimidin-4(3H)-one, Formic Acid] | < 250 | –
27 | Cc1nc2c(=O)n(CC3(O)CCN(C(=O)C[C@@H](C)c4ccccc4)CC3)cnc2n1-c1ccc(CN)cc1 [Example 72, (R)-9-(4-(Aminomethyl)phenyl)-1-((4-hydroxy-1-(3-phenylbutanoyl)piperidin-4-yl)methyl)-8-methyl-1H-purin-6(9H)-one] | < 250 | –
